Reference: patent US4471116A, “Substituted (10H-phenothiazin-10-L)-propyl-1-piperazines” (Hoffmann-La Roche Inc., priority 1982, dated 1984)
Where two headings read alike, the source gives them in different places.

Key:
[1] = Acute toxicity (LD50) in mice after a single dose; conditions: mouse, in vivo
avoidance behavior = assay: Discrete Avoidance - Rats (avoidance block / escape block); assay type: in vivo, rat; conditions: for Discrete Avoidance, % Block: Rats, 40 mg/kg, oral
From the text: For example, by one procedure, trained rats are placed in experimental chambers equipped with a response lever, a steel grid floor for delivery of electric shock and a loudspeaker for presentation of auditory stimuli. […] The rats can terminate a trial at any point by depression of the response lever. A response during the initial fifteen-second warning tone ends the trial before shock delivery and is considered an avoidance response, while a response occurring during shock delivery is an escape response. Trials are presented every two minutes during a one-hour test session (30 trials per session). […] Compounds are administered to a minimum of three to four rats at each dose level over a range of doses. Rats receive vehicle alone, during control sessions prior to drug administration. Each rat is tested daily or weekly, after a single drug administration, until avoidance behavior returns to pre-drug baseline levels. The session is divided into three consecutive twenty minute (ten trial) segments. Response counts are summed over all subjects at a given dose within each segment. […] This number is expressed as a percentage of the total trials within the segment. […] The lowest dose which produced a 20% block of escape responding (EBD 20) is read from a graphic dose-effect plot. In obtaining these values, percent effect is plotted against the log dose.

[2] = test system: Dopamine Turnover-Brain Caudate; assay: Dopamine Turnover-Brain, Caudate; assay type: in vivo; conditions: Rat, 40 mg/kg PO, 7 Days Post-Drug
Prolactin Secretion = Prolactin Secretion (in-vitro); assay type: cell-based; conditions: Rat, read-out: Prolactin Secretion ID50
[3] = test system: Amphetamine Induced Rotation; assay: Amphetamine Induced Rotation antagonism (S. Nigra Lesioned Rats) / Rotation Antagonism; assay type: in vivo, rat; conditions: for Amphetamine Induced Rotation % Antagonism: S. Nigra Lesioned Rats, 40 mg/kg, oral
Continuous Avoidance [4] = assay: Continuous Avoidance (Squirrel Monkeys); assay type: in vivo, squirrel monkey; conditions: for Continuous Avoidance, % Decrease of Responding: Squirrel Monkeys, 5 mg/kg, oral
Pole-Climb Avoidance = assay: Pole-Climb Avoidance, % Block; assay type: in vivo, rat; conditions: Rats, 40 mg/kg, oral
[5] = test system: Apomorphine Induced Emesis; assay: Apomorphine Induced Emesis antagonism (Dogs); assay type: in vivo, dog; conditions: for Apomorphine Induced Emesis % Antagonism: Dogs, 5 mg/kg, subcutaneous
Continuous Avoidance [6] = assay: Continuous Avoidance, % Decrease of Responding (Rats); assay type: in vivo, rat; conditions: 40 mg/kg, oral
[7] = biological target: T1, 3H--Spiroperidol Binding-Caudate (Rattus norvegicus, UniProt P61169); assay: biochemical
T1 construct: from tissue; host or cells: caudate (brain)
T1 sequence (P61169 whole entry): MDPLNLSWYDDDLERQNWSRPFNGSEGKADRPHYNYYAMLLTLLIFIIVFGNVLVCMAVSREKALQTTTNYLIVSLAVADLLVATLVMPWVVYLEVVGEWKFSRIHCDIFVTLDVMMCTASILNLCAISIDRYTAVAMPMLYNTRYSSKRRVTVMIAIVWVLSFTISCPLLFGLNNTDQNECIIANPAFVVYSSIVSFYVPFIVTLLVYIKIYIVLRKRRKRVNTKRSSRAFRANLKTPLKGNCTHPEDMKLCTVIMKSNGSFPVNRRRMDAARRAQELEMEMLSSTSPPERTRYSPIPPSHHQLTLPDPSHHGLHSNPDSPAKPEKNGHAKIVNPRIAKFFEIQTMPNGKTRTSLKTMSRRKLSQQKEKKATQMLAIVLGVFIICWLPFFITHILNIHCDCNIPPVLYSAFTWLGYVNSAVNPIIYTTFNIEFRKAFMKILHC

[8] = test system: Dopamine Turnover-Brain Limbic and Remainder; assay: Dopamine Turnover-Brain, Limbic and Remainder; assay type: in vivo; conditions: Rat, 40 mg/kg PO, 7 Days Post-Drug
revertant colonies = assay: Ames procedure (mutagenicity)
Serum Prolactin = Serum Prolactin Levels (Rats); assay type: in vivo, rat; conditions: 15 mg/kg, oral
[9] = biological target: T2, Dopamine Adenylate Cyclase (Rattus norvegicus, UniProt P18901); assay: biochemical; conditions: in-vitro, read-out: Dopamine Adenylate Cyclase Inhibition-Limbic IC50
T2 construct: from tissue; host or cells: limbic brain tissue
T2 sequence (P18901 whole entry): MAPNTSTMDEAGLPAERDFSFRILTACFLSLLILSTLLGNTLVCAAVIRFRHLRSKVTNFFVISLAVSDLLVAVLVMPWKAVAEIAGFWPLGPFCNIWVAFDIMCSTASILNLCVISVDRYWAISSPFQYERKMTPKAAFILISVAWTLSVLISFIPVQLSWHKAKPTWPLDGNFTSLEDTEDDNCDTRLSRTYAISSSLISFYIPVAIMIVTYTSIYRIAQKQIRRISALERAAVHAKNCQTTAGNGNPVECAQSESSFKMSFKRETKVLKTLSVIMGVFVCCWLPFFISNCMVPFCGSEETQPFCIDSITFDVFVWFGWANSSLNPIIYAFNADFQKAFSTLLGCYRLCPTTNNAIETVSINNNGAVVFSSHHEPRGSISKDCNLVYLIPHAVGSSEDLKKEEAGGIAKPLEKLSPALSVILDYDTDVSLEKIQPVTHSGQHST

[10] = test system: Confinement Motor Activity; assay: Confinement Motor Activity; assay type: in vivo; conditions: 168 h; Rat, PO, 7 Days Post-Drug; read-out: Confinement Motor Activity DD50

CC(C)NC[C@H](O)COc1ccc(OCCN2CCN(CCCN3c4ccccc4Sc4ccc(Cl)cc43)CC2)cc1.Cl.Cl.Cl [Compound A, (S)-1-(1-methylethylamino)-3-[4-[2-[4-[3-(2-chloro-10H-phenothiazin-10-yl)propyl]piperazine-1-yl]ethoxy]phenoxy]-2-propanol trihydrochloride]
LD50 at 24 h ([1]; ip, 24 hours): 77.5 mg/kg
LD50 at 168 h ([1]; po, 7 days): 45 mg/kg
Duration of Sig. Activity (avoidance behavior; 40 mg/kg po): 8 weeks
Time of Peak Effect (avoidance behavior; 40 mg/kg po): 2 to 10 days
ED50 (avoidance behavior; 168 h, Rat, PO, 7 Days Post-Drug, read-out: Discrete Avoidance ABD50): 19 mg/kg
EBD20/ABD50 Ratio (avoidance behavior; Rat, PO, 7 Days Post-Drug): > 2.1
Discrete Avoidance, % Block (avoidance behavior; single administration, 1-4 hours): 40%
Discrete Avoidance, % Block (avoidance behavior; 1 week): 84%
Discrete Avoidance, % Block (avoidance behavior; 2-4 hours): 78%
Discrete Avoidance, % Block (avoidance behavior; 2 weeks): 80%
Discrete Avoidance, % Block (avoidance behavior; 3 weeks): 84%
Discrete Avoidance, % Block (avoidance behavior; 4 weeks): 82%
Discrete Avoidance, % Block (avoidance behavior; 5 weeks): 56%
Discrete Avoidance, % Block (avoidance behavior; 6 weeks): 50%
Discrete Avoidance, % Block (avoidance behavior; 7 weeks): 31%
Discrete Avoidance, % Block (avoidance behavior; 8 weeks): 30%
inhibition in vivo at 40 mg/kg (avoidance behavior; Rattus norvegicus, 1 h, 40 mg/kg po, 60 min. post-drug, read-out: Percentage Block of Avoidance, 60 min. post-drug): 40%
ED50 (avoidance behavior; Rattus norvegicus, po, 7-10 days after administration, read-out: ABD50): 13.5 mg/kg
inhibition in vivo at 40 mg/kg (avoidance behavior; Rattus norvegicus, 40 mg/kg po, 24 hrs. post-drug, read-out: Percentage Block of Avoidance, 24 hrs. post-drug): 77%
inhibition in vivo at 40 mg/kg (avoidance behavior; Rattus norvegicus, 40 mg/kg po, at the indicated duration, read-out: Avoidance block at Duration of Sig. Activity (AB)): 30%
inhibition in vivo at 40 mg/kg (avoidance behavior; Rattus norvegicus, 40 mg/kg po, at time of peak effect, read-out: Avoidance block at Time of Peak Effect (AB)): 90%
duration of neuroleptic effect (in words) (avoidance behavior; discrete avoidance procedure): several weeks
time of maximum neuroleptic activity after administration (avoidance behavior; p.o.): 7 to 10 days
Dopamine Turnover-Brain, Caudate [2]: Signif. .uparw.
IC50 (Prolactin Secretion): 15 nM
ED50 ([3]; 168 h, Rat, PO, 7 Days Post-Drug): < 15 mg/kg
Amphetamine Induced Rotation % Antagonism ([3]; 1-4 hours): 14%
Amphetamine Induced Rotation % Antagonism ([3]; 1 week): 97%
Amphetamine Induced Rotation % Antagonism ([3]; 2 weeks): 95%
Amphetamine Induced Rotation % Antagonism ([3]; 3 weeks): 87%
Amphetamine Induced Rotation % Antagonism ([3]; 4 weeks): 87%
Amphetamine Induced Rotation % Antagonism ([3]; 5 weeks): 62%
Amphetamine Induced Rotation % Antagonism ([3]; 6 weeks): 28%
Amphetamine Induced Rotation % Antagonism ([3]; 7 weeks): 4%
minimal effective dose (Continuous Avoidance [4]; Primates, 168 h, Squirrel Monkey, PO, 7 Days Post-Drug, read-out: Continuous Avoidance MED Shocks): < 5 mg/kg
Continuous Avoidance, % Decrease of Responding (Continuous Avoidance [4]; 1-4 hours): 0%
Continuous Avoidance, % Decrease of Responding (Continuous Avoidance [4]; 1 week): 35%
Continuous Avoidance, % Decrease of Responding (Continuous Avoidance [4]; 2-4 hours): 15%
Continuous Avoidance, % Decrease of Responding (Continuous Avoidance [4]; 2 weeks): 37%
Continuous Avoidance, % Decrease of Responding (Continuous Avoidance [4]; 3 weeks): 24%
Pole-Climb Avoidance, % Block (Pole-Climb Avoidance; 1-4 hours): 30%
Pole-Climb Avoidance, % Block (Pole-Climb Avoidance; 1 week): 50%
Pole-Climb Avoidance, % Block (Pole-Climb Avoidance; 2 weeks): 44%
Pole-Climb Avoidance, % Block (Pole-Climb Avoidance; 3 weeks): 11%
ED50 ([5]; Canis lupus familiaris, 168 h, Dog, SC, 7 Days Post-Drug, read-out: Anti-Apomorphine Emesis ED50): < 5 mg/kg
Apomorphine Induced Emesis % Antagonism ([5]; 1-4 hours): 93%
Apomorphine Induced Emesis % Antagonism ([5]; 1 week): 100%
Apomorphine Induced Emesis % Antagonism ([5]; 2-4 hours): 100%
Apomorphine Induced Emesis % Antagonism ([5]; 2 weeks): 100%
Apomorphine Induced Emesis % Antagonism ([5]; 3 weeks): 100%
Apomorphine Induced Emesis % Antagonism ([5]; 4 weeks): 100%
Apomorphine Induced Emesis % Antagonism ([5]; 5 weeks): 100%
Apomorphine Induced Emesis % Antagonism ([5]; 6 weeks): 100%
Apomorphine Induced Emesis % Antagonism ([5]; 7 weeks): 56%
Apomorphine Induced Emesis % Antagonism ([5]; 8 weeks): 40%
Continuous Avoidance, % Decrease of Responding (Continuous Avoidance [6]; 1-4 hours): 0%
Continuous Avoidance, % Decrease of Responding (Continuous Avoidance [6]; 1 week): 97%
Continuous Avoidance, % Decrease of Responding (Continuous Avoidance [6]; 2-4 hours): 59%
Continuous Avoidance, % Decrease of Responding (Continuous Avoidance [6]; 2 weeks): 96%
Continuous Avoidance, % Decrease of Responding (Continuous Avoidance [6]; 3 weeks): 93%
Continuous Avoidance, % Decrease of Responding (Continuous Avoidance [6]; 4 weeks): 84%
Continuous Avoidance, % Decrease of Responding (Continuous Avoidance [6]; 5 weeks): 82%
Continuous Avoidance, % Decrease of Responding (Continuous Avoidance [6]; 6 weeks): 55%
Continuous Avoidance, % Decrease of Responding (Continuous Avoidance [6]; 7 weeks): 48%
Continuous Avoidance, % Decrease of Responding (Continuous Avoidance [6]; 8 weeks): 32%
IC50 [7]: 1.8 nM
Dopamine Turnover-Brain, Limbic and Remainder [8]: Not signif.
revertant colonies (Ames) (revertant colonies): increased revertant colonies at the highest concentration tested
Serum Prolactin Levels % Increase (Serum Prolactin; 1-4 hours): 215%
Serum Prolactin Levels % Increase (Serum Prolactin; 1 week): 525%
Serum Prolactin Levels % Increase (Serum Prolactin; 2-4 hours): 97%
Serum Prolactin Levels % Increase (Serum Prolactin; 3 weeks): 251%
Serum Prolactin Levels % Increase (Serum Prolactin; 4 weeks): 56%
IC50 [9]: 500 nM
ED50 [10]: 19.6 mg/kg
